Converted amounts (≈) assume the structure as drawn. “Also recorded” adds a separate entry of the source. Like-named read-outs stand apart in the source and are kept apart here.
Assays:
[1] = test system: Bacteroides melaninogenicus 2736; assay: MIC against anaerobic bacteria, standard agar-dilution assay; format: cell-based; details: end point after 24 hours
[2] = test system: Propionibacterium acnes 79; assay: as above; format: cell-based; details: Cutibacterium acnes, end point after 24 hours
[3] = test system: pathogenic bacteria, especially gram-positive bacteria and Mycoplasma species; assay: Antibacterial activity (in words); format: cell-based; details: qualitative statement
Source text: (§1) Table 3 summarizes the minimal inhibitory concentrations (MIC), as measured by standard agar-dilution assays, at which DH-DO-DMT and DH-DO-OMT (as free bases) inhibit certain bacteria.

[4] = test system: Peptostreptococcus anaerobius 1428; assay: MIC against anaerobic bacteria, standard agar-dilution assay; format: cell-based; details: end point after 24 hours
[5] = test system: Streptococcus pneumoniae Park I; assay: In vivo activity against experimental infections in mice; details: po
[6] = test system: Staphylococcus aureus 3055; assay: as above; details: two doses
[7] = test system: Clostridium perfringens 81; assay: microbe, parasite or virus in culture; format: cell-based; details: Clostridium perfringens, 81, 24 h
[8] = test system: Streptococcus faecium ATCC 9790; format: cell-based; details: Enterococcus faecium, ATCC9790
Chlamydia trachomatis = assay: MIC, Chlamydia trachomatis grown in cell culture; format: cell-based
Source text: (§2) In addition, DH-DO-OMT inhibits Mycoplasma species.

Peptococcus prevoti 1281 = assay: MIC against anaerobic bacteria, standard agar-dilution assay; format: cell-based; details: end point after 24 hours
Procedure: (§3) Table 4 summarizes the MIC's at which DH-DO-OMT inhibits these bacteria. The MIC's were determined using a standard agar-dilution assay and reading the end point after 24 hours.

[9] = test system: Bacteroides thetaiotaomicron 1438; assay: as above; format: cell-based; details: Bacteroides thetaiotaomicron, 1438, 24 h
Procedure: as §3

[10] = test system: Clostridium septicum 1128; assay: as above; format: cell-based; details: end point after 24 hours
Procedure: as §3

[11] = test system: Bacteroides vulgatis 1211; assay: as above; format: cell-based; details: end point after 24 hours
[12] = test system: Staphylococcus aureus NRRL B313; format: cell-based; details: NRRLB313
[13] = test system: Peptococcus asaccharolyticus 1302; assay: MIC against anaerobic bacteria, standard agar-dilution assay; format: cell-based; details: Peptoniphilus asaccharolyticus, end point after 24 hours
[14] = test system: Streptococcus pyogenes C203; format: cell-based
[15] = test system: Staphylococcus aureus V41; format: cell-based
[16] = test system: Haemophilus influenzae C.L.; format: cell-based
[17] = test system: Streptococcus pneumoniae Park 1; format: cell-based
[18] = test system: Bacteroides fragilis 1877; assay: MIC against anaerobic bacteria, standard agar-dilution assay; format: cell-based; details: end point after 24 hours
M. synoviae = assay: MIC against Mycoplasma species; format: cell-based; details: Mycoplasmopsis synoviae
Source text: as §2

M. gallisepticum = assay: MIC against Mycoplasma species; format: cell-based; details: Mycoplasmoides gallisepticum
Source text: as §2

[19] = test system: Bacteroides corrodens 1874; assay: MIC against anaerobic bacteria, standard agar-dilution assay; format: cell-based; details: Eikenella corrodens, end point after 24 hours
[20] = test system: Klebsiella pneumoniae X26; format: cell-based
[21] = test system: Streptococcus pyogenes C203; assay: In vivo activity against experimental infections in mice; details: free base, oral, two doses, bacterial challenge 64 LD50
Escherichia coli TEM = format: cell-based
[22] = test system: Streptococcus sp. group D 9960; format: cell-based
[23] = test system: Klebsiella pneumoniae KAE; format: cell-based; details: free base, agar dilution
Source text: as §1

Escherichia coli N10 = format: cell-based; details: free base, agar dilution
Source text: as §1

Escherichia coli EC14 = format: cell-based; details: free base, agar dilution
Source text: as §1

Shigella sonnei N9 = format: cell-based; details: free base, agar dilution
Source text: as §1

[24] = test system: Fusobacterium symbiosum 1470; assay: MIC against anaerobic bacteria, standard agar-dilution assay; format: cell-based; details: end point after 24 hours
[25] = test system: Haemophilus influenzae 76; format: cell-based
[26] = test system: Staphylococcus aureus X400; format: cell-based
[27] = test system: Bacteroides fragilis 1936B; assay: MIC against anaerobic bacteria, standard agar-dilution assay; format: cell-based; details: end point after 24 hours
Solubility = format: physicochemical; details: for solubility in polar organic solvents: free bases, acetone, methanol, ethanol, chloroform, dimethylformamide, dimethyl sulfoxide; for solubility in water: free bases (rows) or acid addition salts (sets)
[28] = test system: Peptostreptococcus intermedius 1264; assay: MIC against anaerobic bacteria, standard agar-dilution assay; format: cell-based; details: end point after 24 hours
[29] = test system: Clostridium difficile 2994; assay: as above; format: cell-based; details: Clostridioides difficile, end point after 24 hours
[30] = test system: Eubacterium aerofaciens 1235; assay: as above; format: cell-based; details: Collinsella aerofaciens, end point after 24 hours
[31] = test system: Staphylococcus epidermidis EPI2; format: cell-based; details: free base, agar dilution
Bacteroides fragilis 111 = assay: MIC against anaerobic bacteria, standard agar-dilution assay; format: cell-based; details: end point after 24 hours
[32] = test system: Fusobacterium necrophorum 6054A; assay: as above; format: cell-based; details: end point after 24 hours
[33] = test system: Bacteroides melaninogenicus 1856/28; assay: as above; format: cell-based; details: end point after 24 hours
[34] = test system: Staphylococcus epidermidis EPI1; format: cell-based

Structure (SMILES): CCC1CC(C)C(=O)C=CC(C)=CC(CO)C(CC)OC(=O)CC(O)C(C)C1OC1OC(C)C(O)C(N(C)C)C1O (stereo not drawn) [DH-DO-OMT, 20-Dihydro-20-deoxy-5-O-mycaminosyltylonolide]
- MIC [1]: > 8 µg/mL
- MIC [2]: 2 µg/mL (≈ 3.43 µM)
- antibacterial activity [3]: inhibit the growth of pathogenic bacteria, especially gram-positive bacteria and Mycoplasma species; also recorded: active against gram-positive microorganisms and Mycoplasma species
- MIC [4]: > 8 µg/mL
- ED50 [5]: 224 mg/kg
- ED50 ([6]; Staphylococcus aureus, 3055, free base, oral, bacterial challenge 100 LD50): 44 mg/kg
- ED50 ([6]; Staphylococcus aureus, 3055, sc, free base, subcutaneous, bacterial challenge 221 LD50): 37.3 mg/kg
- MIC [7]: 2 µg/mL (≈ 3.43 µM)
- MIC ([8]; free base, agar dilution, Streptococcus faecium ATCC 9790, read-out: MIC): 16 µg/mL (≈ 27.4 µM)
- MIC (Chlamydia trachomatis): 0.5 µg/mL (≈ 0.857 µM)
- MIC (Peptococcus prevoti 1281): > 8 µg/mL
- MIC [9]: > 8 µg/mL
- MIC [10]: 2 µg/mL (≈ 3.43 µM)
- MIC [11]: > 8 µg/mL
- MIC ([12]; free base, agar dilution, Staphylococcus aureus NRRL B313, read-out: MIC): 4 µg/mL (≈ 6.85 µM)
- MIC [13]: > 8 µg/mL
- MIC ([14]; free base, agar dilution, Streptococcus pyogenes C203, read-out: MIC): 8 µg/mL (≈ 13.7 µM)
- MIC ([15]; free base, agar dilution, Staphylococcus aureus V41, read-out: MIC): 4 µg/mL (≈ 6.85 µM)
- MIC ([16]; free base, agar dilution, Haemophilus influenzae C.L., read-out: MIC): 16 µg/mL (≈ 27.4 µM)
- MIC ([17]; PARK1, read-out: MIC): 8 µg/mL (≈ 13.7 µM)
- MIC [18]: > 8 µg/mL
- MIC (M. synoviae): 12.5 µg/mL (≈ 21.4 µM)
- MIC (M. gallisepticum): 12.5 µg/mL (≈ 21.4 µM)
- MIC [19]: > 8 µg/mL
- MIC ([20]; free base, agar dilution, Klebsiella pneumoniae X26, read-out: MIC): 4 µg/mL (≈ 6.85 µM)
- ED50 [21]: 75.3 mg/kg
- MIC (Escherichia coli TEM; free base, agar dilution, Escherichia coli TEM, read-out: MIC): 64 µg/mL (≈ 110 µM)
- MIC ([22]; free base, agar dilution, Streptococcus sp. group D 9960, read-out: MIC): 16 µg/mL (≈ 27.4 µM)
- MIC [23]: > 128 µg/mL
- MIC (Escherichia coli N10): > 128 µg/mL
- MIC (Escherichia coli EC14): > 128 µg/mL
- MIC (Shigella sonnei N9): > 128 µg/mL
- MIC [24]: > 8 µg/mL
- MIC ([25]; free base, agar dilution, Haemophilus influenzae 76, read-out: MIC): 16 µg/mL (≈ 27.4 µM)
- MIC ([26]; free base, agar dilution, Staphylococcus aureus X400, read-out: MIC): 8 µg/mL (≈ 13.7 µM)
- MIC [27]: > 8 µg/mL
- solubility in polar organic solvents (Solubility): soluble in water and in most polar organic solvents
- solubility in water (Solubility): soluble in water
- MIC [28]: > 8 µg/mL
- MIC [29]: 2 µg/mL (≈ 3.43 µM)
- MIC [30]: 2 µg/mL (≈ 3.43 µM)
- MIC [31]: 8 µg/mL (≈ 13.7 µM)
- MIC (Bacteroides fragilis 111): > 8 µg/mL
- MIC [32]: 8 µg/mL (≈ 13.7 µM)
- MIC [33]: > 8 µg/mL
- MIC ([34]; read-out: MIC): 8 µg/mL (≈ 13.7 µM)

Structure (SMILES): CCC1CC(C)C(=O)C=CC(C)=CC(CO)C(CC)OC(=O)CC(O)C(C)C1OC1OC(C)C(OC2CC(C)(O)C(O)C(C)O2)C(N(C)C)C1O (stereo not drawn) [DH-DO-DMT, 20-dihydro-20-deoxy-23-demycinosyltylosin]
- antibacterial activity [3]: inhibit the growth of pathogenic bacteria, especially gram-positive bacteria and Mycoplasma species; also recorded: some antibacterial activity; also recorded: active against gram-positive microorganisms and Mycoplasma species
- MIC [8]: > 128 µg/mL
- MIC ([12]; Staphylococcus aureus): 128 µg/mL (≈ 176 µM)
- MIC ([14]; Streptococcus pyogenes, C203): > 128 µg/mL
- MIC ([15]; Staphylococcus aureus, V41): 128 µg/mL (≈ 176 µM)
- MIC ([16]; Haemophilus influenzae): > 128 µg/mL
- MIC ([17]; PARK1): > 128 µg/mL
- MIC ([20]; Klebsiella pneumoniae, X26): > 128 µg/mL
- MIC (Escherichia coli TEM; Escherichia coli): > 128 µg/mL
- MIC ([22]; Streptococcus): > 128 µg/mL
- MIC [23]: > 128 µg/mL
- MIC (Escherichia coli N10): > 128 µg/mL
- MIC (Escherichia coli EC14): > 128 µg/mL
- MIC (Shigella sonnei N9): > 128 µg/mL
- MIC ([25]; Haemophilus influenzae, 76): > 128 µg/mL
- MIC ([26]; Staphylococcus aureus, X400): > 128 µg/mL
- solubility in polar organic solvents (Solubility): soluble in water and in most polar organic solvents
- solubility in water (Solubility): soluble in water
- MIC [31]: 64 µg/mL (≈ 87.9 µM)
- MIC [34]: 128 µg/mL (≈ 176 µM)

— patent US4419508A, “20-Dihydro-20-deoxy-23-demycinosyltylosin and process for its production” (Eli Lilly and Company, priority 1981, dated 1983)
